Data: patent publication US6949521B2, “Therapeutic azide compounds” (priority 1995, dated 2005)
Read-outs that look alike come from different tables or passages of the source.

Assays:
[1] = Pharmacokinetics in mouse serum after iv and oral administration of cordycepin or its azide derivative; assay type: in vivo, mice
Procedure: 100 mg/kg of cordycepin or the azide derivative of cordycepin were administered intravenously (iv) (dissolved in methylsulfoxide (20 mg/ml)), or orally (dissolved in 30% glycerin (8.3 mg/ml)). Three animals for each time point were sacrificed at 0.08, 0.25, 0.5, 0.75, 1.0, 1.5, 2.0, 3.0 and 4.0 h after drug administration. Blood (serum) was collected and immediately analyzed.
An AzdU was used as an internal standard (20 μg/ml) to measure the azide derivative concentrations in serum. Tubes were vortexed and centrifuged at 9,000 rpm for 5 min.
To neutralize, perchloric acid supernatant was transferred into a clean tube with 160 μl of concentrated sodium tetraborate solution (pH 6.5). Tubes were vortexed again and centrifuged at 12,000 rpm for 15 min. Samples were held at 0° C. during analysis.
Chromatographic separations were carried out on a Shimadzy gradient HPLC system (Shimadzy Corporation, Kyoto, Japan), which was equipped with a Model SPD-10A UV detector, a Model L-10AS pump, a Model SIL-10A autosampler, a controller Model SCL-10A and a Model CR-501 reporting integrator. Chromatography was performed on an Alltech Hypersil ODS (5 μm particle size, 4.6×250 mm, Ailtech Associates, Deerfield, Ill.) to determine cordycepin and its metabolite. The azide derivative of cordycepin was analyzed on an Alltech Hypersil BDS column (5 μm particle size, 4.6×250 mm, Alltech Associates, Deerfield, Ill.).
The mobile phase for cordycepin and metabolite analysis in serum consisted of 3% acetonitrile in 20 mM sodium borate and 10 mM EDTA (pH 6.5) at a flow of 1.4 ml/min and the mobile phase for azide derivative analysis in serum consisted of 3% acetonitrile 20 mM in potassium phosphate (pH 4.0) at a flow of 1.5 ml/min. The UV detector was set at 258 nm for analysis of cordycepin and metabolite and at 290 nm for the azide derivative.
The limit of quantitation was 0.05 μg/ml for cordycepin and metabolite and 0.5 μg/ml for the azide derivative.
Plasma concentration versus time data for nucleosides were analyzed by noncompartment methods. […] Prog. Biomed. (1983) 16:203-216.
Absolute bioavailability (F) of the azide derivative was calculated from AUCor/AUCiv, where AUC values were determined from serum nucleoside concentration versus time data.
Relative exposures for cordycepin and its metabolite in serum after or versus iv administration of the derivative were calculated from AUCor/AUCiv.

[2] = biological target: T1, adenosine deaminase (type VII from calf intestinal mucosa) (Bos taurus, UniProt P56658); experiment: Deamination by adenosine deaminase (2′-fluoronucleosides); assay type: biochemical
T1 construct: type VII from calf intestinal mucosa; purchased Sigma Chemical Co., St. Louis, Mo. type VII; host or cells: calf intestinal mucosa
T1 sequence (P56658 1-363): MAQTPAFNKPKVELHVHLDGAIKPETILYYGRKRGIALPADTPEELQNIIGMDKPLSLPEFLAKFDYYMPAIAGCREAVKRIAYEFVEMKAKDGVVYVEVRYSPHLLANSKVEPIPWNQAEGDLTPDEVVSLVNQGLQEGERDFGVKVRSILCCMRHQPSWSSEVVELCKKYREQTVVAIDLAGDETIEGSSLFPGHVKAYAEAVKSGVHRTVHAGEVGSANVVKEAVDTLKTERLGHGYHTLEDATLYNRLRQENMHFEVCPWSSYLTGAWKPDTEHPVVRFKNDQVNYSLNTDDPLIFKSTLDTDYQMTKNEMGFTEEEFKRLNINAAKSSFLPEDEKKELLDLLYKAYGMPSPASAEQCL
Procedure: Deamination of 2′-F-ara-ddA and FMAddA by adenosine deaminase. Samples (1.5 mL) of 2′-F-ara-ddA (80 μM) or FMAddA (50 μM) were prepared in 0.05 M isotonic phosphate buffer, pH 7.4, and placed into a shaking water bath at 37° C. The reaction was initiated by the addition of 15 μL of adenosine deaminase (type VII from calf intestinal mucosa, Sigma Chemical Co., St. Louis, Mo.). The final activity in the incubation media was 0.05 U/mL for 2′-F-ara-ddA and 1.0 U/mL for FMAddA. At specified time intervals, aliquots of 100 μL were withdrawn for the determination of 2′-F-ara-ddA and 2′-F-ara-ddI or FMAddA and 2′-F-ara-ddI concentrations.
Mobile phase flow rate was 2 mL/min.

in vivo = conditions: mouse, in vivo; for half-life: t½
Excerpt: Animal studies. […] Animal studies were approved by the University of Georgia Animal Care and Use Committee and conducted in accordance with guidelines established by the Animal Welfare Act and the National Institutes of Health Guide for the Care and Use of Laboratory Animals. […] Animals were acclimatized to this environment for one week prior to the experiments.
At selected time intervals, mice (three animals per each time point) were anesthetized with diethyl ether and sacrificed by exsanguination via left ventricular heart puncture. Serum was harvested from blood collected. The brain was excised, rinsed with normal saline, blotted dry and weighed.
(§1) Analytical Methodology. […] The brain or liver tissue were homogenized in a 1:1 (g:mL) ratio with ice cold isotonic 0.05 M phosphate buffer, pH 7.4. […] Acetonitrile (600 μL) containing 0.1% acetic acid was added while vortexing to precipitate proteins. The tubes were centrifuged at 3,000 rpm for five minutes and the supernatant was transferred to a clean tube. Supernatant was evaporated to dryness under a stream of nitrogen gas at room temperature. The residual film was reconstituted in 110 μL of mobile phase and 50 μL was injected onto the HPLC.
(§2) Chromatographic separations were performed using a Hypersil ODS column 150×4.5 mm, 5 μm particle size (Alltech Associates, Deerfield, Ill.) preceded by a guard column packed with 30-40 μm pellicular Perisorb RP-18. Mobile phase flow rate was 2 mL/min. For the analysis of FAAddP and 2′-F-ara-ddA, the mobile phase consisted of 7% (v/v) acetonitrile in 80 mM sodium acetate, pH 5.0. […] Eluants were monitored at a UV wavelength of 260 nm.
(§3) Nucleoside standards ranging from 0.04 μg/mL to 100 μg/mL, prepared in blank PBS, serum, brain homogenate and liver homogenate were treated the same as unknown samples. Samples with nucleoside concentrations greater than 100 μg/mL were diluted with the appropriate blank matrix.
Data analysis in vivo studies. Nucleoside concentration as a function of time data were analyzed by a non-compartmental technique. […] Relative brain exposure (re) was calculated from AUCbrain/AUCserum.

[3] = In vitro stability in PBS, mouse serum, brain and liver homogenate (FAAddP, FMAddA); assay type: in vitro ADME; conditions: for stability in phosphate buffer saline: PBS pH 7.4, 37° C.; for half-life at 70 μM: mouse
Procedure: In vitro stability in serum, brain and liver homogenate. Liver and brain homogenate were prepared in a 1: 1 (g:mL) ratio with isotonic 0.05 M phosphate buffer, pH 7.4. FAAddP (70 μM) or FMAddA (50 μM) were added to the mouse serum, the brain homogenate or the liver homogenate and incubated in a shaker water bath at 37° C. Aliquots of 100 μL were removed at time zero and at selected times for up to 6 hours. Concentrations of the compounds were determined by HPLC.
as §1, §2, §3
Data analysis in vitro studies.

[4] = system: microsomal fraction of the human liver homogenate; experiment: Azido reduction assay
Procedure: Briefly, incubation mixtures contained either 1.5 mg of human liver fraction protein (homogenate or supernatant fractions following centrifugation) or 1.5 mg microsomal protein, 5.0 mM MgCl2, 6.0 mM NADPH and 0.4 mg/mL of 6-AAP in 0.1 M phosphate buffer saline at pH 7.4 (final volume of 0.2 mL). The reaction was initiated by adding NADPH and conducted at 37° C. for 60 minutes under nitrogen. Reactions were terminated by heating at 100° C. for 30 seconds and the proteins were removed by centrifugation at 14,000 g for six minutes. Aliquots (100 μL) were then analyzed for nucleosides by HPLC. Control incubations were performed in the absence of protein.
Inhibition of azido reduction assay: Assays were performed using 1.5 mg microsomal protein as described above following either a 45 second exposure to carbon monoxide or a 5 minute pre-incubation with 1 mM metyrapone prior to the addition of NADPH.

[5] = In vitro metabolism study of 6-AAP and ara-A in mouse liver homogenate, serum and brain homogenate
Procedure: (§4) All the solvents were of HPLC grade. Chromatography was performed on an Altech Hypersil ODS C18 (5 μm particle size, 4.5×150 mm, Altech Associates, Deerfield, Ill.).
(§5) In vitro metabolism study. Female NIH Swiss mice (Harland Sprague-Dawley, Indianapolis, Ind.) were sacrificed and serum, liver and brain tissues were collected before each experiment. Serum was collected from several animals. The brain and liver were washed in normal saline at 4° C., wiped and then weighed. […] Samples and blanks of volume 400 μL were collected at 0, 5, 15, and 30 minutes and at 1, 2, 3, 4 and 5 hours.
(§6) To measure the analyte concentrations in serum, liver or brain homogenate, 400 μL of sample was mixed with 50 μL of internal standard (AzdU, 5 μg/mL) and 0.7 mL of acetonitrile. After centrifugation, the supernatant was decanted to another tube and treated with anhydrous Na2SO4, then vortexed for one minute and centrifuged again. The organic layer was separated and evaporated under nitrogen stream at room temperature. The residue was reconstituted in mobile phase A and filtered through MPS-I micropartition system (3KD membranes (Amicon Inc., Beverly, Mass.) by centrifugation for 50 minutes at 2000 rpm to further clean-up the samples. 100 μL of filtrate was injected for analysis.

in vitro = conditions: female, NIH Swiss, mouse, liver homogenate
Procedure: as §4, §5, §6

[6] = mouse serum, after iv azide derivative 100 mg/kg
[7] = mouse serum, after oral azide derivative 100 mg/kg
[8] = female, NIH Swiss, mouse, in vivo, iv, 100 mg/kg
[9] = female, NIH Swiss, mouse, in vivo, po, 100 mg/kg
[10] = female, NIH-Swiss, iv, 55 mg/kg
[11] = female, NIH-Swiss, po, 55 mg/kg
[12] = 6-AAP incubated in mouse liver homogenate

Structure (SMILES): [N-]=[N+]=Nc1ncnc2c1ncn2[C@@H]1O[C@H](CO)C[C@H]1O [Azide Deriv., N^6-azido-β-D-3′-deoxyribofuranosyl purine]
- absolute bioavailability after oral administration ([1]; mice, azide derivative): 94%
- AUC0→∞ iv [1, 6]: 47200 ± 4010 ng·h/mL
- Cmax (maximal measured concentration) iv [1, 6]: 143000 ± 33400 ng/mL
- T½ iv [1, 6]: 21.6 min
- T½ iv ([1]; mouse serum, after iv azide derivative 100 mg/kg, listed as azide derivative): 21 min
- AUC0→∞ oral [1, 7]: 44500 ± 2780 ng·h/mL
- Cmax (maximal measured concentration) oral [1, 7]: 48200 ± 12300 ng/mL
- T½ oral [1, 7]: 31.8 min

Structure (SMILES): O=c1[nH]cnc2c1ncn2[C@@H]1O[C@H](CO)C[C@H]1O [Metabolite, 3′-deoxyinosine]
- AUC(0-inf) [1, 8]: 3680 ± 260 ng·h/mL
- half-life [1, 8]: 30 min
- AUC(0-inf) [1, 9]: 5890 ± 590 ng·h/mL
- detection in serum [1, 9]: Neither 3′-deoxyinosine nor cordycepin were detected
- half-life [1, 9]: 39 min

Structure (SMILES): [N-]=[N+]=Nc1ncnc2c1ncn2C1OC(CO)CC1F [FAAddP, 6-azido-2′,3′-dideoxy-2′-fluoro-β-D-arabinofuranosylpurine]
- direct conversion to 2′-F-ara-ddI by adenosine deaminase ([2]; in vitro biotransformation): negligible rate
- intravenously administered dose of prodrug converted to 2′-F-ara-ddI (in vivo; female, NIH-Swiss): Approximately 30%
- clearance (in vivo; female, NIH-Swiss, iv): 18.7 mL/min/kg
- t½ (in vivo; [10]): 13.2 min
- half-life (in vivo; [10]): 13.2 min
- AUC/Dose (in vivo; [11]): 0.19 μM · h/μmol/kg
- bioavailability (in vivo; [11]): 19%
- AUC (in vivo; female, NIH-Swiss, po, 55 mg/kg, AUC0-τ): 34.2 µM·h
- half-life (in vivo; [11]): 91.8 min
- stability in phosphate buffer saline [3]: stable
- half-life at 70 μM ([3]; brain homogenate, pH 7.4, mouse brain homogenate, read-out: half-life in brain homogenate (converted)): 366 min
- half-life at 70 μM ([3]; liver homogenate, pH 7.4, mouse liver homogenate, biphasic, after initial 45 minutes, read-out: t1/2 in liver homogenate, subsequent slower phase (converted)): 464 min
- half-life at 70 μM ([3]; liver homogenate, pH 7.4, mouse liver homogenate, biphasic, initial phase, read-out: t1/2 in liver homogenate, initial 45 minutes (converted)): 28.8 min
- half-life at 70 μM ([3]; mouse serum, 37° C., read-out: degradation half-life in mouse serum (converted)): 145 min
- azido reduction (metabolites formed) [4]: metabolized to 2′-F-ara-ddA and 2′-F-ara-ddI

Structure (SMILES): Nc1ncnc2c1ncn2[C@@H]1O[C@H](CO)C[C@H]1O [Cordycepin, 3′-deoxyadenosine, reference compound]
- AUC(0-inf) ([1]; female, NIH Swiss, in vivo, mouse serum, after iv azide derivative 100 mg/kg, read-out: AUC0→∞ iv): 2170 ± 350 ng·h/mL
- Cmax ([1]; female, NIH Swiss, in vivo, mouse serum, after iv azide derivative 100 mg/kg, read-out: Cmax (maximal measured concentration) iv): 3890 ± 1720 ng/mL
- half-life ([1]; female, NIH Swiss, in vivo, mouse serum, after iv azide derivative 100 mg/kg, read-out: T½ iv (converted)): 14.4 min
- AUC(0-inf) ([1]; female, NIH Swiss, in vivo, mouse serum, after oral azide derivative 100 mg/kg, read-out: AUC0→∞ oral): 1630 ± 150 ng·h/mL
- Cmax ([1]; female, NIH Swiss, in vivo, mouse serum, after oral azide derivative 100 mg/kg, read-out: Cmax (maximal measured concentration) oral): 1180 ± 600 ng/mL
- half-life ([1]; female, NIH Swiss, in vivo, mouse serum, after oral azide derivative 100 mg/kg, read-out: T½ oral (converted)): 45.6 min
- time of detection of cordycepin in serum above 0.05 μg/ml, iv ([1]; female, NIH Swiss, mouse, in vivo, iv): ≤ 1.5 h
- time of detection of cordycepin in serum above 0.05 μg/ml, oral ([1]; female, NIH Swiss, mouse, in vivo, po): ≤ 3 h
- detection in serum [1, 9]: Neither 3′-deoxyinosine nor cordycepin were detected
- re - relative exposure: AUC ratio oral vs. intravenous (AUCor/AUCiv) ([1]; mouse serum, after azide derivative 100 mg/kg): 0.75
- cordycepin in serum samples collected 10 min later ([1]; mouse, in vivo, iv, 100 mg/kg): not recovered
- cordycepin in serum samples collected at 5 min ([1]; mouse, in vivo, iv, 100 mg/kg): trace amount

Structure (SMILES): CNc1ncnc2c1ncn2[C@@H]1O[C@H](CO)C[C@@H]1F [FMAddA, N^6-methyl-2′,3′-dideoxy-2′-fluoro-β-D-arabinofuranosyladenine]
- t½ upon addition of adenosine deaminase to PBS ([2]; PBS + adenosine deaminase): 27.6 min
- extent of conversion to 2′-F-ara-ddI upon addition of adenosine deaminase ([2]; PBS and brain homogenate + adenosine deaminase): virtually all of the prodrug was converted
- t1/2 upon addition of adenosine deaminase to brain homogenate ([2]; brain homogenate + adenosine deaminase): 222 min
- intravenously administered dose of prodrug converted to 2′-F-ara-ddI (in vivo): 5.6%
- Steady-state volume of distribution (in vivo; iv): 0.79 L/kg
- Total clearance (in vivo; iv): 32.2 mL/min/kg
- stability in phosphate buffer saline [3]: stable
- half-life in brain homogenate ([3]; mouse brain homogenate): stable
- t1/2 in liver homogenate (metabolized to 2′-F-ara-ddI) ([3]; mouse liver homogenate): 546 min
- degradation half-life in mouse serum ([3]; mouse serum, 37° C.): stable

Structure (SMILES): O=c1[nH]cnc2c1ncn2[C@@H]1O[C@H](CO)[C@@H](O)[C@@H]1O [Ara-H, 9-(β-D-arabinofuranosyl)hypoxanthine]
- Kel [5, 12]: 0.26 h⁻¹
- T1/2 [5, 12]: 147 min
- Kel ([5]; Ara-A incubated in mouse liver homogenate): 0.31 h⁻¹
- half-life at 100 μg/mL (in vitro): 134 min
